Data: ChEMBL document CHEMBL5247629, “C-6 fluorinated casuarines as highly potent and selective amyloglucosidase inhibitors: Synthesis and structure-activity relationship study” (Eur J Med Chem, 2022)

Key:
[1] = Inhibition of Aspergillus niger amyloglucosidase
[2] = Inhibition of Aspergillus niger amyloglucosidase using p-nitrophenyl glycoside as substrate by spectrometric method
[3] = tested on: Penicillium decumbens; test: Inhibition of Penicillium decumbens alpha-L-rhamnosidase at 1000 uM relative to control
[4] = target: Alpha-glucosidase (Saccharomyces cerevisiae S288c, UniProt P53341+P38158+P07265); test: Inhibition of yeast alpha-glucosidase; format: protein assay
[5] = Inhibition of rice alpha-glucosidase; set-up: species or system Oryza sativa
[6] = Inhibition of rat intestinal maltase; format: tissue-based, Intestine
[7] = tested on: Prunus dulcis; test: Inhibition of almond beta-glucosidase at 1000 uM relative to control
[8] = species: Bos taurus; test: Inhibition of bovine liver beta-glucosidase at 1000 uM relative to control; format: tissue-based
[9] = target: Alpha-galactosidase (Coffea arabica) (UniProt Q42656); test: Inhibition of coffee bean alpha-galactosidase at 1000 uM relative to control
Chain of Alpha-galactosidase (Coffea arabica) (Q42656 16-378 limits assumed): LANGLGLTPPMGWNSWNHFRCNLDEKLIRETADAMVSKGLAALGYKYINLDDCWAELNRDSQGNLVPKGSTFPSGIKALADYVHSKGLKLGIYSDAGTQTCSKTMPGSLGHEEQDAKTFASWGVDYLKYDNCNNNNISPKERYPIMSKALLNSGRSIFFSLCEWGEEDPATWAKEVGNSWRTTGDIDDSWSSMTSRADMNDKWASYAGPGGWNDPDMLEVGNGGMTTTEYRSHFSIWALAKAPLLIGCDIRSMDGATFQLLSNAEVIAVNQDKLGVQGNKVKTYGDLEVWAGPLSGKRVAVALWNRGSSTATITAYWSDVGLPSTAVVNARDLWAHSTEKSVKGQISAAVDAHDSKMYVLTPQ

[10] = species: Bos taurus; test: Inhibition of bovine liver beta-galactosidase at 1000 uM relative to control
[11] = target: T1, Alpha-mannosidase (Canavalia ensiformis) (UniProt C0HJB3); test: Inhibition of jack bean alpha-mannosidase at 1000 uM relative to control
T1 sequence (whole entry): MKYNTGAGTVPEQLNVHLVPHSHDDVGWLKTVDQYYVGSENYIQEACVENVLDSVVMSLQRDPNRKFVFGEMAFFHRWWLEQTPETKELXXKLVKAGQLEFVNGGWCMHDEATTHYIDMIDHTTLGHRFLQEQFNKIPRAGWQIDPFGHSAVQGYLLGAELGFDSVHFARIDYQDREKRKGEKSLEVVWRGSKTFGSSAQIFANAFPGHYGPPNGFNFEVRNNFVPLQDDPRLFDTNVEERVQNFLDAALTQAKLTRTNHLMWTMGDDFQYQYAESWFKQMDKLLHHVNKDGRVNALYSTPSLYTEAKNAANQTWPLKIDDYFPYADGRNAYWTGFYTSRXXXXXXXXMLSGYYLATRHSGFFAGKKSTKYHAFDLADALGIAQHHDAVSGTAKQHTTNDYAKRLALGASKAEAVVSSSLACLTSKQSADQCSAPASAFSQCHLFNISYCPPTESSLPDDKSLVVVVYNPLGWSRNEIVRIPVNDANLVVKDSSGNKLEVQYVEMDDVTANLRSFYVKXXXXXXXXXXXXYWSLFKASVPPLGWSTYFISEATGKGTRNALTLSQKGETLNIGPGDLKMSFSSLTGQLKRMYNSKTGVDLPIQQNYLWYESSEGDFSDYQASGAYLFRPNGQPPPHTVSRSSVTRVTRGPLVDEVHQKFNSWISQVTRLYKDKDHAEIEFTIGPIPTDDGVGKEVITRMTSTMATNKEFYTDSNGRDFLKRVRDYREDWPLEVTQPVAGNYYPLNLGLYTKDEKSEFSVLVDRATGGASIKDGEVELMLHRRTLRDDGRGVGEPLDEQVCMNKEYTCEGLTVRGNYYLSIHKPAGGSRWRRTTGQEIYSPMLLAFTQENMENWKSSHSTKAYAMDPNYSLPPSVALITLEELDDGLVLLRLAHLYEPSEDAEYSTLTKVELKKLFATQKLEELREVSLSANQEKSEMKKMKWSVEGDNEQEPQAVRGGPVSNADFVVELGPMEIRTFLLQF

[12] = tested on: Helix pomatia; test: Inhibition of snail beta-mannosidase at 1000 uM relative to control
[13] = target: T2, Tissue alpha-L-fucosidase (Bos taurus) (UniProt Q2KIM0); test: Inhibition of bovine kidney alpha-L-fucosidase at 1000 uM relative to control; format: tissue-based
T2 sequence (whole entry): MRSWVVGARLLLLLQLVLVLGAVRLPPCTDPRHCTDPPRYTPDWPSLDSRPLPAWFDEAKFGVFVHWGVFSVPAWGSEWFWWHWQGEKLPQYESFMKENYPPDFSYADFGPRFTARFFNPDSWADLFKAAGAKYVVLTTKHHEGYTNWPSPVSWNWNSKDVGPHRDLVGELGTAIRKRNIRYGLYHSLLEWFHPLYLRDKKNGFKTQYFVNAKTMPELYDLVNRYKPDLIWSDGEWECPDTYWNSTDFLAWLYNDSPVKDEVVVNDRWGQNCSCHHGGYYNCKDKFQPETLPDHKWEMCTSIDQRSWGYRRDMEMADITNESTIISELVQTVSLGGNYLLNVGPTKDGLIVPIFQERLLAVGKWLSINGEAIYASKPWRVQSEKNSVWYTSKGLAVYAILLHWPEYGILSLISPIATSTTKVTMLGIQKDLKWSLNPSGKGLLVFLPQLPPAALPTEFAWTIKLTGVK

[14] = Inhibition of porcine kidney alpha/alpha-trehalase; format: tissue-based, Sus scrofa
[15] = tested on: Escherichia coli; test: Inhibition of Escherichia coli beta-glucuronidase at 1000 uM relative to control
[16] = species: Bos taurus; test: Inhibition of bovine liver beta-glucuronidase at 1000 uM relative to control; format: tissue-based
[17] = target: Alpha-glucosidase (Saccharomyces cerevisiae S288c) (UniProt P53341+P38158+P07265); test: Inhibition of yeast alpha-glucosidase using p-nitrophenyl glycoside as substrate at 1000 uM by spectrometric method relative to control; format: protein assay
[18] = Inhibition of rice alpha-glucosidase using p-nitrophenyl glycoside as substrate by spectrometric method; set-up: species or system Oryza sativa
[19] = Inhibition of rat intestinal maltase using maltose as substrate at pH 6.8 by colorimetric method; format: tissue-based, Intestine
[20] = tested on: Prunus dulcis; test: Inhibition of almond beta-glucosidase using p-nitrophenyl glycoside as substrate at 1000 uM by spectrometric method relative to control
[21] = species: Bos taurus; test: Inhibition of bovine liver beta-glucosidase using p-nitrophenyl glycoside as substrate at 1000 uM by spectrometric method relative to control; format: tissue-based
[22] = target: T1, Alpha-mannosidase (Canavalia ensiformis); test: Inhibition of jack bean alpha-mannosidase using p-nitrophenyl glycoside as substrate at 1000 uM by spectrometric method relative to control
[23] = target: Alpha-galactosidase (Coffea arabica) (UniProt Q42656); test: Inhibition of coffee bean alpha-galactosidase using p-nitrophenyl glycoside as substrate at 1000 uM by spectrometric method relative to control
[24] = species: Bos taurus; test: Inhibition of bovine liver beta-galactosidase using p-nitrophenyl glycoside as substrate at 1000 uM by spectrometric method relative to control; format: tissue-based
[25] = tested on: Helix pomatia; test: Inhibition of snail beta-mannosidase using p-nitrophenyl glycoside as substrate at 1000 uM by spectrometric method relative to control
[26] = target: T2, Tissue alpha-L-fucosidase (Bos taurus); test: Inhibition of bovine kidney alpha-L-fucosidase using p-nitrophenyl glycoside as substrate at 1000 uM by spectrometric method relative to control; format: tissue-based
[27] = species: Sus scrofa; test: Inhibition of porcine kidney alpha/alpha-trehalase using p-nitrophenyl glycoside as substrate at 1000 uM by spectrometric method relative to control; format: tissue-based
[28] = tested on: Penicillium decumbens; test: Inhibition of Penicillium decumbens alpha-L-rhamnosidase using p-nitrophenyl glycoside as substrate at 1000 uM by spectrometric method relative to control
[29] = tested on: Escherichia coli; test: Inhibition of Escherichia coli beta-glucuronidase using p-nitrophenyl glycoside as substrate at 1000 uM by spectrometric method relative to control
[30] = species: Bos taurus; test: Inhibition of bovine liver beta-glucuronidase using p-nitrophenyl glycoside as substrate at 1000 uM by spectrometric method relative to control; format: tissue-based
[31] = tested on: Oryza sativa; test: Inhibition of rice alpha-glucosidase using p-nitrophenyl glycoside as substrate at 1000 uM by spectrometric method relative to control
[32] = species: Rattus norvegicus; test: Inhibition of rat intestinal maltase using maltose as substrate at 1000 uM at pH 6.8 by colorimetric method relative to control; format: tissue-based; details: Intestine

Structure (SMILES) | IC50 [1] [µM] | pIC50 [2] | inhibition [17] [%] | inhibition [20] [%] | inhibition [21] [%] | inhibition [22] [%] | inhibition [23] [%] | inhibition [24] [%] | inhibition [25] [%] | inhibition [26] [%] | inhibition [27] [%] | IC50 [2] [µM] | inhibition [28] [%] | inhibition [29] [%] | inhibition [30] [%] | other results
OC[C@@H]1[C@@H](O)[C@H](O)[C@H]2[C@@H](F)[C@H](O)CN21 | 167 | 3.777 | – | – | – | – | – | – | – | – | – | – | – | – | – | –
OC[C@@H]1[C@@H](O)[C@H](O)[C@H]2[C@H](O)[C@@H](O)CN21 [CASUARINE] | 6.3 | 5.201 | – | – | – | – | – | – | – | – | – | – | – | – | – | inhibition [3]: 4.6%; IC50 [4]: 71 µM; IC50 [5]: 14 µM; IC50 [6]: 3.1 µM; inhibition [7]: 12%; inhibition [8]: 7.5%; inhibition [9]: 3.7%; inhibition [10]: 10.2%; inhibition [11]: 0%; inhibition [12]: 0%; inhibition [13]: 0%; IC50 [14]: 157 µM; inhibition [15]: 1.8%; inhibition [16]: 17.3%
OC[C@@H]1[C@@H](O)[C@H](O)[C@H]2[C@H](O)[C@@H](F)CN21 | – | 4.456 | 41.9 | 21.5 | 18.8 | 0 | 5 | 36.7 | 6.2 | 14.6 | 34.4 | 35 | 14.1 | 7.5 | 33.2 | IC50 [18]: 771 µM; IC50 [19]: 313 µM
OC[C@@H]1[C@@H](O)[C@H](O)[C@H]2[C@@H](O)[C@H](F)CN21 | – | 4.959 | 0 | 8.5 | 32.3 | 0 | 0 | 17.6 | 0.8 | 0 | 30.4 | 11 | 0 | 2.9 | 23.1 | inhibition [31]: 28.4%; inhibition [32]: 41.7%
OC[C@@H]1[C@@H](O)[C@H](O)[C@H]2[C@@H](F)CCN21 | 81 | 4.092 | – | – | – | – | – | – | – | – | – | – | – | – | – | –
OC[C@@H]1[C@@H](O)[C@H](O)[C@H]2C[C@H](F)CN12 | – | 5.658 | 0 | 36.8 | 25.5 | 0 | 2.9 | 25.8 | 0 | 0 | 23 | 2.2 | 9.9 | 0 | 14.8 | inhibition [31]: 10%; inhibition [32]: 7.9%
OC[C@@H]1[C@@H](O)[C@H](O)[C@@H]2N1C[C@H](O)C2(F)F | 39 | 4.409 | – | – | – | – | – | – | – | – | – | – | – | – | – | –
OC[C@@H]1[C@@H](O)[C@H](O)[C@H]2[C@@H](O)C(F)(F)CN21 | – | 3.609 | 5.6 | 3.5 | 12 | 0.8 | 0.2 | 6.2 | 0 | 6.4 | 9.2 | 246 | 0 | 2.6 | 10.1 | inhibition [31]: 7.7%; inhibition [32]: 28.4%
OC[C@@H]1[C@@H](O)[C@H](O)[C@H]2CC(F)(F)CN12 | – | 4.569 | 3.6 | 11.4 | 12.5 | 0 | 1.6 | 22.4 | 0 | 0 | 3.2 | 27 | 3 | 0 | 0 | inhibition [31]: 15.4%; inhibition [32]: 7.9%
OC[C@@H]1[C@@H](O)[C@H](O)[C@H]2[C@H](F)[C@H](O)CN21 | 4.5 | 5.347 | – | – | – | – | – | – | – | – | – | – | – | – | – | –
OC[C@@H]1[C@@H](O)[C@H](O)[C@H]2[C@@H](O)[C@@H](F)CN21 | – | 3.606 | 18 | 13.6 | 35.9 | 3.3 | 0 | 38 | 0 | 14 | 30.4 | 248 | 1.7 | 7 | 13.3 | IC50 [18]: 350 µM; IC50 [19]: 927 µM
OC[C@@H]1[C@@H](O)[C@H](O)[C@H]2[C@@H](F)[C@@H](O)CN21 | 152 | 3.818 | – | – | – | – | – | – | – | – | – | – | – | – | – | –
OC[C@@H]1[C@@H](O)[C@H](O)[C@H]2[C@H](F)[C@@H](O)CN21 | 5.3 | 5.276 | – | – | – | – | – | – | – | – | – | – | – | – | – | –
OC[C@@H]1[C@@H](O)[C@H](O)[C@H]2[C@H](O)[C@H](O)CN21 | 5.3 | 5.276 | – | – | – | – | – | – | – | – | – | – | – | – | – | inhibition [3]: 13.2%; IC50 [4]: 46 µM; IC50 [5]: 68 µM; IC50 [6]: 13 µM; inhibition [7]: 31.9%; inhibition [8]: 1.9%; inhibition [9]: 6%; inhibition [10]: 5.9%; inhibition [11]: 1.1%; inhibition [12]: 3%; inhibition [13]: 0%; IC50 [14]: 9.7 µM; inhibition [15]: 3.1%; inhibition [16]: 18.4%
OC[C@@H]1[C@@H](O)[C@H](O)[C@@H]2N1C[C@@H](O)C2(F)F | 60 | 4.222 | – | – | – | – | – | – | – | – | – | – | – | – | – | –
OC[C@@H]1[C@@H](O)[C@H](O)[C@H]2C[C@@H](F)CN12 | – | 3.199 | 30.1 | 17.7 | 24.3 | 2.3 | 6.7 | 29.9 | 4.3 | 0.9 | 42.3 | 633 | 4.9 | 1.2 | 21.9 | inhibition [31]: 17.7%; inhibition [32]: 30.9%
OC[C@@H]1[C@@H](O)[C@H](O)[C@H]2[C@@H](O)[C@@H](O)CN21 | 64 | 4.194 | – | – | – | – | – | – | – | – | – | – | – | – | – | –
